{"source": "paper PMC12472391", "about": "“Borylated Five-Membered Ring Iminosugars: Synthesis, Spectroscopic Analysis, and Biological Evaluation for Glycosidase Inhibition and Anticancer Properties for Application in Boron Neutron Capture Therapy (BNCT)—Part 1” (Pharmaceuticals, 2025)", "key": {"[1]": {"test_system": "panel of eight glycosidases", "assay": "Glycosidase inhibition, whole panel of Table 7", "assay_type": "biochemical", "settings": "1 mg/mL aqueous solution added", "procedure": "(§1) All enzymes and para-nitrophenyl substrates were purchased from Sigma. Enzymes were assayed at 27 °C in citric acid (0.1M)/disodium hydrogen phosphate (0.2 M) buffers at the optimum pH for the enzyme. The incubation mixture consisted of […] enzyme solution, […] of 1 mg/mL aqueous solution of extract, and […] of the appropriate 5 mM para-nitrophenyl substrate made up in buffer at the optimum pH for the enzyme. The reactions were stopped by the addition of […] 0.4 M glycine (pH 10.4) during the exponential phase of the reaction, which had been determined at the beginning using uninhibited assays in which water replaced the inhibitor. Final absorbances were read at 405 nm using a Versamax microplate reader (Molecular Devices). Assays were carried out in triplicate, and the values given are the means of the three replicates per assay. All reactions run in water."}, "[2]": {"test_system": "Du145 prostate carcinoma cells", "assay": "Cancer screening, MTT growth inhibition", "assay_type": "cell-based", "settings": "72-h exposure", "procedure": "(§2) Two assays were run: the dose screen to ascertain cell growth inhibition in response to 25 µM of drug (on a blue background) and the dose response (GI50) (on a green background). For a discussion of BNCT as a radiotherapeutic modality, a rationalisation is provided here.\n(§3) All test agents were prepared as stock solutions (20 mM) in dimethyl sulfoxide (DMSO) and stored at −20 °C. Cell lines used in the study included HT29, (colorectal carcinoma); U87, SJ-G2, (glioblastoma); MCF-7, (breast carcinoma); A2780 (ovarian carcinoma); H460 (lung carcinoma); A431 (skin carcinoma); Du145 (prostate carcinoma); BE2-C (neuroblastoma) and MiaPaCa-2 (pancreatic carcinoma); together with the one non-tumour derived normal breast cell line (MCF10A). All cell lines were incubated in a humidified atmosphere 5% CO2 at 37 °C. The cancer cell lines were maintained in Dulbecco’s modified Eagle’s medium (DMEM; Sigma, Australia) supplemented with foetal bovine serum (10%), sodium pyruvate (10 mM), penicillin (100 IUmL^−1), streptomycin (100 µg mL^−1), and L-glutamine (2 mM).\n(§4) Growth inhibition was determined by plating cells in duplicate in medium (100 µL) at a density of 2500–4000 cells per well in 96-well plates. On day 0 (24 h after plating), when the cells are in logarithmic growth, medium (100 µL) with or without the test agent was added to each well. After a 72-h drug exposure, growth inhibitory effects were evaluated using the MTT (3-(4,5-dimethyltiazol-2-yl)-2,5-diphenyltetrazolium bromide) assay and absorbance read at 540 nm. The percentage growth inhibition was calculated at a fixed concentration of 25 µM, based on the difference between the optical density values on day 0 and those at the end of drug exposure. Each data point is the mean ± the standard error of the mean (SEM) calculated from three replicates, which were performed on separate occasions and separate cell line passages."}, "[3]": {"test_system": "U87 glioblastoma cells", "assay": "Cancer screening, MTT growth inhibition", "assay_type": "cell-based", "settings": "72-h exposure", "procedure": "as §2, §3, §4"}, "[4]": {"test_system": "H460 lung carcinoma cells", "assay": "Cancer screening, MTT growth inhibition", "assay_type": "cell-based", "settings": "25 µM, 72-h exposure", "procedure": "as §2, §3, §4"}, "[5]": {"test_system": "MCF-7 breast carcinoma cells", "assay": "Cancer screening, MTT growth inhibition", "assay_type": "cell-based", "settings": "72-h exposure", "procedure": "as §2, §3, §4"}, "[6]": {"test_system": "SJ-G2 glioblastoma cells", "assay": "Cancer screening, MTT growth inhibition", "assay_type": "cell-based", "settings": "72-h exposure", "procedure": "as §2, §3, §4"}, "[7]": {"test_system": "A2780 ovarian carcinoma cells", "assay": "Cancer screening, MTT growth inhibition", "assay_type": "cell-based", "settings": "25 µM, 72-h exposure", "procedure": "as §2, §3, §4"}, "[8]": {"test_system": "HT29 colon carcinoma cells", "assay": "Cancer screening, MTT growth inhibition", "assay_type": "cell-based", "settings": "25 µM, 72-h exposure", "procedure": "as §2, §3, §4"}, "[9]": {"test_system": "A431 skin carcinoma cells", "assay": "Cancer screening, MTT growth inhibition", "assay_type": "cell-based", "settings": "25 µM, 72-h exposure", "procedure": "as §2, §3, §4"}, "[10]": {"test_system": "β-D-glucosidase (almond)", "assay": "Glycosidase inhibition, Table 7", "assay_type": "biochemical", "settings": "1 mg/mL aqueous solution added, 27 °C, run in water", "procedure": "as §1"}, "[11]": {"molecular_target": "T1, α-D-glucosidase (yeast) (Saccharomyces cerevisiae, UniProt P53341)", "T1 construct": "purchased Sigma", "T1 sequence (P53341 whole entry)": "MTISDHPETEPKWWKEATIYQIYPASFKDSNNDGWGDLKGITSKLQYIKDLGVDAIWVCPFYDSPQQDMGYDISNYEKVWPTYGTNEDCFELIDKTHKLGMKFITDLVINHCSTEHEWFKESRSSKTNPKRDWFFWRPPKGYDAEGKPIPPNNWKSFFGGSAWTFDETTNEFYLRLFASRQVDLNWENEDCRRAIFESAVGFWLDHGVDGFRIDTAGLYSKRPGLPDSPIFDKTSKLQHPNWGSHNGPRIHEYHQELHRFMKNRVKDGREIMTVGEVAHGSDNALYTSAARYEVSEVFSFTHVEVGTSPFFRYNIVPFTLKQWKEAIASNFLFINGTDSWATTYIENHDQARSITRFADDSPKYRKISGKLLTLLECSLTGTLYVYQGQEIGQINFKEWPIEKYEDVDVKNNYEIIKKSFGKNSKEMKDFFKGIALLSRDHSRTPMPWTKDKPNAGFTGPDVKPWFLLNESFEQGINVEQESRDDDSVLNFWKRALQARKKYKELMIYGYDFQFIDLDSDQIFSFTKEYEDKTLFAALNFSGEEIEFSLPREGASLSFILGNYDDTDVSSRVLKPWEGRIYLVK", "assay": "Glycosidase inhibition, Table 7", "assay_type": "biochemical", "settings": "1 mg/mL aqueous solution added, 27 °C, run in water", "procedure": "as §1"}, "[12]": {"test_system": "β-D-glucuronidase (bovine liver)", "assay": "Glycosidase inhibition, Table 7", "assay_type": "biochemical", "settings": "1 mg/mL aqueous solution added, 27 °C, run in water", "procedure": "as §1"}}, "data": [{"substance": "borocaptate sodium [BSH, reference compound]", "values": [{"measurement": "inhibitions across the panel (Table 7)", "setting": "[1]", "value": "31.6–65.9%"}, {"measurement": "Du145 Prostate Carcinoma, Percentage (%) Cell Growth Inhibition in response to 25 µM of Drug", "setting": "[2]", "value": "* 0 ± 8%"}, {"measurement": "U87 Glioblastoma, Percentage (%) Cell Growth Inhibition in response to 25 µM of Drug", "setting": "[3]", "value": "* <0%"}, {"measurement": "H460 Lung Carcinoma, Percentage (%) Cell Growth Inhibition in response to 25 µM of Drug", "setting": "[4]", "value": "* 8 ± 2%"}, {"measurement": "MCF-7 Breast Carcinoma, Percentage (%) Cell Growth Inhibition in response to 25 µM of Drug", "setting": "[5]", "value": "* 15 ± 3%"}, {"measurement": "SJ-G2 Glioblastoma, Percentage (%) Cell Growth Inhibition in response to 25 µM of Drug", "setting": "[6]", "value": "* 3 ± 8%"}, {"measurement": "A2780 Ovarian Carcinoma, Percentage (%) Cell Growth Inhibition in response to 25 µM of Drug", "setting": "[7]", "value": "* 2 ± 5%"}, {"measurement": "HT29 Colon Carcinoma, Percentage (%) Cell Growth Inhibition in response to 25 µM of Drug", "setting": "[8]", "value": "* 3 ± 2%"}, {"measurement": "A431 Skin Carcinoma, Percentage (%) Cell Growth Inhibition in response to 25 µM of Drug", "setting": "[9]", "value": "* <0%"}, {"measurement": "β-D-Glucosidase Almond, percentage inhibition", "setting": "[10]", "value": 47.3, "unit": "%"}, {"measurement": "α-D-Glucosidase Yeast, percentage inhibition", "setting": "[11]", "value": 59, "unit": "%"}, {"measurement": "β-D-Glucuronidase Bovine Liver, percentage inhibition", "setting": "[12]", "value": 31.6, "unit": "%"}]}]}
